ChEMBL document CHEMBL3244148, “Agonist effects of beta-phenethylamines on the noradrenergic cyclic adenosine 3',5'-monophosphate generating system in rat limbic forebrain. Stereoisomers of p-hydroxynorephedrine” (J Med Chem, 1977)
Where a name gives a salt, the structure may show the parent alone. Activity calls are given as the source filed them. The calls are words filed in the database; no cut-off is given here.

Tests used:
Rattus norvegicus = species: Rattus norvegicus; test: Agonist activity at noradrenergic receptor in Sprague-Dawley rat limbic forebrain assessed as increase in c-AMP production up to 10^-4 M incubated for 10 mins; assay type: tissue-based; settings: Limbic system
[1] = Agonist activity at noradrenergic receptor in Sprague-Dawley rat limbic forebrain assessed as increase in c-AMP production incubated for 10 mins

Compound	Activity (Rattus norvegicus)	EC50 [1] [µM]
C[C@H](N)[C@H](O)c1ccc(O)cc1	inactive	
CC(N)C(O)c1ccc(O)c(O)c1 (racemic) [NORDEFRIN HYDROCHLORIDE]		10
NCCc1ccc(O)c(O)c1	inactive	
CC(C)NC[C@H](O)c1ccc(O)c(O)c1		5
C[C@H](N)Cc1ccc(O)cc1	inactive	
C[C@H](N)[C@H](O)c1cccc(O)c1	inactive	
C[C@H](N)[C@@H](O)c1ccc(O)cc1	inactive	
CNC[C@@H](O)c1ccc(O)c(O)c1		> 100
C[C@H](N)Cc1ccccc1	inactive	
CNC[C@H](O)c1ccc(O)c(O)c1 [EPINEPHRINE BITARTRATE]		5
NCC(O)c1ccc(O)cc1 (racemic)	inactive	
